According to ChEMBL document CHEMBL1201862, “PubChem BioAssay data set” (2004):
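Dose response: 5 concentrations. Exposure: 48 h. Format: 96-well plates. Endpoint: linear interpolation; highest concentration if not reached. GI50 = concentration required for 50% inhibition of growth.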 Calls of active or inactive are those of the source. No stated cut-off is given here; in the data, active = GI50 up to about 1.1 µM and inactive = higher. Residues, ends and D or L forms follow the SMILES beside them. *: point of attachment. Cbz = O=C(OCc1ccccc1)*; Boc = CC(C)(C)OC(=O)*; OSu = O=C1CCC(=O)N1O*; Bn = c1ccc(C*)cc1

Legend:
Assay in all cases: NCI anticancer screen, dose series, 48 h
A498 = tested on: A498
A549 = tested on: A549
CCRF-CEM = tested on: CCRF-CEM
EKVX = tested on: EKVX
HT-29 = tested on: HT-29
K562 = tested on: K562
MOLT-4 = tested on: MOLT-4
NCI-H460 = tested on: NCI-H460
NCI/ADR-RES = tested on: NCI/ADR-RES
OVCAR-4 = tested on: OVCAR-4
OVCAR-5 = tested on: OVCAR-5
OVCAR-8 = tested on: OVCAR-8
RXF 393 = tested on: RXF 393
SF-539 = tested on: SF-539
SK-MEL-28 = tested on: SK-MEL-28
SK-OV-3 = tested on: SK-OV-3
SNB-19 = tested on: SNB-19
SNB-75 = tested on: SNB-75
SR = tested on: SR
HL-60 = tested on: HL-60

Structure (SMILES)	GI50 (A498)	GI50 (A549)	GI50 (CCRF-CEM)	GI50 (EKVX)	GI50 (HT-29)	GI50 (K562)	GI50 (MOLT-4)	GI50 (NCI-H460)	GI50 (NCI/ADR-RES)	GI50 (OVCAR-4)	GI50 (OVCAR-5)	GI50 (OVCAR-8)	GI50 (RXF 393)	GI50 (SF-539)	GI50 (SK-MEL-28)	GI50 (SK-OV-3)	GI50 (SNB-19)	GI50 (SNB-75)	GI50 (SR)	GI50 (HL-60)
CC(=O)Nc1ccc(/C=C/C(=O)N2CC(CCl)c3c2cc(N)c2ccccc32)cc1 (stereo not given)	< 0.005 µM (active)	< 0.005 µM (active)	< 0.005 µM (active)	0.01 µM (active)	< 0.005 µM (active)	0.0211 µM (active)	< 0.005 µM (active)	< 0.005 µM (active)	< 0.005 µM (active)	0.0226 µM (active)	< 0.005 µM (active)	< 0.005 µM (active)	< 0.005 µM (active)	< 0.005 µM (active)	0.00641 µM (active)	0.0091 µM (active)	< 0.005 µM (active)	0.01 µM (active)	< 0.005 µM (active)	–
CCCCCCCC/C=C\CCCCCCCCNc1ccn(C2OC(COP(=O)(O)OC3CC(n4cc(F)c(=O)[nH]c4=O)OC3CO)C(O)C2O)c(=O)n1 (stereo not given)	–	< 0.0194 µM (active)	< 0.0215 µM (active)	> 100 µM (inactive)	4.19 µM (inactive)	2.52 µM (inactive)	0.471 µM (active)	–	3.36 µM (inactive)	> 91.8 µM (inactive)	> 100 µM (inactive)	0.329 µM (active)	9.62 µM (inactive)	< 0.0484 µM (active)	32.1 µM (inactive)	14.6 µM (inactive)	0.376 µM (active)	1.7 µM (inactive)	0.0159 µM (active)	1.25 µM (inactive)
Cc1ccc(S(=O)(=O)NC(=O)NC(Cc2ccccc2)C(=O)O)cc1 (stereo not given)	–	> 100 µM (inactive)	> 100 µM (inactive)	–	> 100 µM (inactive)	> 100 µM (inactive)	> 100 µM (inactive)	> 100 µM (inactive)	> 100 µM (inactive)	> 100 µM (inactive)	> 100 µM (inactive)	> 100 µM (inactive)	> 100 µM (inactive)	> 100 µM (inactive)	> 100 µM (inactive)	> 100 µM (inactive)	> 100 µM (inactive)	> 100 µM (inactive)	> 100 µM (inactive)	> 100 µM (inactive)
Clc1ncc(C(Cl)(Cl)Cl)nc1-c1ccccc1	–	6.46 µM (inactive)	14.6 µM (inactive)	2.29 µM (inactive)	1.82 µM (inactive)	2.46 µM (inactive)	4.75 µM (inactive)	3.01 µM (inactive)	4.07 µM (inactive)	4.04 µM (inactive)	16.1 µM (inactive)	2.57 µM (inactive)	1.64 µM (inactive)	2.63 µM (inactive)	3.79 µM (inactive)	11.9 µM (inactive)	1.69 µM (inactive)	2.56 µM (inactive)	3.85 µM (inactive)	2.7 µM (inactive)
COc1ccc2c(c1)CN1C(=N2)CSC1c1ccccc1Cl (stereo not given)	–	25.7 µM (inactive)	–	16.6 µM (inactive)	17.4 µM (inactive)	5.33 µM (inactive)	0.54 µM (active)	14.3 µM (inactive)	10.1 µM (inactive)	20.1 µM (inactive)	18.5 µM (inactive)	16.7 µM (inactive)	14.4 µM (inactive)	14.5 µM (inactive)	11.1 µM (inactive)	24.3 µM (inactive)	28.6 µM (inactive)	19 µM (inactive)	7.76 µM (inactive)	6.55 µM (inactive)
COc1ccc(N2C(=O)C3CC4=CC(=O)C[C@H]4[C@H]32)cc1 (stereo not given in full)	> 100 µM (inactive)	> 100 µM (inactive)	–	–	–	64.9 µM (inactive)	> 100 µM (inactive)	58.2 µM (inactive)	44.1 µM (inactive)	> 100 µM (inactive)	88.1 µM (inactive)	49.4 µM (inactive)	82 µM (inactive)	–	> 100 µM (inactive)	> 100 µM (inactive)	> 100 µM (inactive)	93.5 µM (inactive)	55.7 µM (inactive)	–
O=C(CNS(=O)(=O)Cc1ccccc1)NNc1ccccc1	–	> 100 µM (inactive)	> 100 µM (inactive)	> 69.5 µM (inactive)	> 100 µM (inactive)	2.5 µM (inactive)	> 100 µM (inactive)	25.1 µM (inactive)	> 100 µM (inactive)	> 100 µM (inactive)	> 100 µM (inactive)	> 100 µM (inactive)	> 100 µM (inactive)	3.05 µM (inactive)	> 100 µM (inactive)	> 100 µM (inactive)	> 100 µM (inactive)	> 36.6 µM (inactive)	> 100 µM (inactive)	3.44 µM (inactive)
CC1(C)CC(=O)c2c(nc3ccc4ccccc4c3c2-c2ccc(NC(=O)CCC(=O)Nc3ccc(-c4c5c(nc6ccc7ccccc7c46)CC(C)(C)CC5=O)cc3)cc2)C1	–	> 100 µM (inactive)	> 100 µM (inactive)	> 100 µM (inactive)	> 100 µM (inactive)	> 100 µM (inactive)	> 100 µM (inactive)	> 100 µM (inactive)	> 100 µM (inactive)	–	> 100 µM (inactive)	> 100 µM (inactive)	> 100 µM (inactive)	> 100 µM (inactive)	> 100 µM (inactive)	> 100 µM (inactive)	> 100 µM (inactive)	28.2 µM (inactive)	> 100 µM (inactive)	> 100 µM (inactive)
Cc1csc(NNC(N)=O)n1	–	> 100 µM (inactive)	> 100 µM (inactive)	> 100 µM (inactive)	> 100 µM (inactive)	–	> 100 µM (inactive)	> 100 µM (inactive)	> 100 µM (inactive)	> 100 µM (inactive)	> 100 µM (inactive)	> 100 µM (inactive)	> 100 µM (inactive)	> 100 µM (inactive)	> 100 µM (inactive)	> 100 µM (inactive)	> 100 µM (inactive)	> 100 µM (inactive)	25.6 µM (inactive)	> 100 µM (inactive)
COc1ccc(/N=N/c2c(-c3c(OC)cc4occc4c3OC)[nH]c(=O)c(C#N)c2C)cc1	–	> 100 µM (inactive)	> 100 µM (inactive)	> 100 µM (inactive)	> 100 µM (inactive)	> 100 µM (inactive)	> 100 µM (inactive)	> 100 µM (inactive)	> 100 µM (inactive)	> 100 µM (inactive)	> 100 µM (inactive)	> 100 µM (inactive)	> 100 µM (inactive)	> 100 µM (inactive)	> 100 µM (inactive)	> 100 µM (inactive)	> 100 µM (inactive)	53.2 µM (inactive)	> 100 µM (inactive)	> 100 µM (inactive)
COc1cccc2c(Nc3ccc(S(=O)(=O)N=C(N)N)cc3)c3ccc([N+](=O)[O-])cc3nc12	19.1 µM (inactive)	20.2 µM (inactive)	2.38 µM (inactive)	26.2 µM (inactive)	32.8 µM (inactive)	6 µM (inactive)	2.29 µM (inactive)	4.32 µM (inactive)	> 100 µM (inactive)	37.7 µM (inactive)	44.6 µM (inactive)	15.7 µM (inactive)	40.4 µM (inactive)	4.85 µM (inactive)	35.2 µM (inactive)	28.6 µM (inactive)	12.6 µM (inactive)	–	11.3 µM (inactive)	–
CCOP(=O)(OCC)/C(C#N)=C/c1cccn1Cc1ccccc1	34.3 µM (inactive)	34.8 µM (inactive)	27.2 µM (inactive)	38 µM (inactive)	32.7 µM (inactive)	28.2 µM (inactive)	17.2 µM (inactive)	31.9 µM (inactive)	26.2 µM (inactive)	–	83.2 µM (inactive)	33.6 µM (inactive)	30.8 µM (inactive)	18.5 µM (inactive)	19.7 µM (inactive)	53 µM (inactive)	44.4 µM (inactive)	39.9 µM (inactive)	31.3 µM (inactive)	–
O=c1c2c3c(sc2nc2n1N=CN(c1ccc(Cl)cc1)C2)CCCC3	4.12 µM (inactive)	38.4 µM (inactive)	17 µM (inactive)	93.8 µM (inactive)	19.5 µM (inactive)	19.3 µM (inactive)	17.9 µM (inactive)	38 µM (inactive)	74.8 µM (inactive)	52.6 µM (inactive)	> 100 µM (inactive)	83.8 µM (inactive)	12.3 µM (inactive)	–	> 100 µM (inactive)	> 100 µM (inactive)	> 100 µM (inactive)	24.7 µM (inactive)	15.7 µM (inactive)	–
C[C@@H](CC(O)C(O)C(C)(C)O)C1CCC23CC12CCC1[C@@]2(C)CCC(O)C(C)(C)C2CC(OC2OC(CO)C(O)C(O)C2O)[C@]13C (stereo not given in full)	> 10 µM (inactive)	> 10 µM (inactive)	> 10 µM (inactive)	> 10 µM (inactive)	> 10 µM (inactive)	> 10 µM (inactive)	> 10 µM (inactive)	> 10 µM (inactive)	> 10 µM (inactive)	> 10 µM (inactive)	> 10 µM (inactive)	> 10 µM (inactive)	> 10 µM (inactive)	> 10 µM (inactive)	> 10 µM (inactive)	> 10 µM (inactive)	> 10 µM (inactive)	> 10 µM (inactive)	–	> 10 µM (inactive)
CC(C)(C)OC(=O)NC(Cc1ccc(OCc2ccccc2)cc1)C(=O)NC(CCCCNC(=O)OCc1ccccc1)C(=O)NC(CCCCNC(=O)OCc1ccccc1)C(=O)ON1C(=O)CCC1=O (stereo not given) (Boc-Tyr(Bn)-Lys(Cbz)-Lys(Cbz)-OSu; configuration not given here)	–	> 100 µM (inactive)	66.2 µM (inactive)	> 100 µM (inactive)	41.1 µM (inactive)	–	> 100 µM (inactive)	71.1 µM (inactive)	> 100 µM (inactive)	60.7 µM (inactive)	36.7 µM (inactive)	29.1 µM (inactive)	39.4 µM (inactive)	–	30.6 µM (inactive)	> 100 µM (inactive)	16.6 µM (inactive)	51.6 µM (inactive)	> 100 µM (inactive)	–
